Reference: US5707679A, “Metal propionates for use as animal feed supplements” (priority 1995, dated 1998)
Like-named read-outs stand apart in the source and are kept apart here.

Assays:
[1] = Performance of finishing cattle (Study 1: weight, gain, feed intake, gain/feed); format: in vivo, Angus crossbred steers; design: Average daily gain: unit not given here; details: finishing steers; for Final weight / Initial weight: 25 ppm supplemental zinc; for Final weight: 140-day study; for Initial weight: baseline
Text: Fifty-six Angus crossbred steers were used in this study. Steers were purchased from either a feeder calf sale […] a preconditioned sale. Steers were blocked by sale type and weight, and then randomly assigned to a feed regimen. […] All regimens provided 25 ppm of supplemental zinc. Steers were housed in pens containing seven steers each.
Supplemental protein was supplied from a combination of soybean meal and urea. Steer weights were obtained on two consecutive days at the beginning and the end of the 140-day study. Interim weights were taken at 28-day intervals. Feed intake was measured daily. Blood and rumen fluid samples were obtained from 10 steers per treatment approximately two hours post feeding on day 42 of the study. Samples were analyzed for plasma and rumen fluid soluble zinc concentrations. Data were analyzed statistically by least square analysis of variance.

[2] = cited from earlier work; for biological availability vs inorganic salts (in words): polyvalent metal ions from metal-amino acid complexes; for absorption of metal cations in the gastrointestinal tract (in words): in vivo
[3] = Performance of growing cattle (Study 2: weight, gain, feed intake, gain/feed); format: in vivo, Angus steers; details: for Average daily gain / Feed intake / Gain/feed / Final weight / Initial weight: growing steers; for Final weight / Initial weight: 25 ppm supplemental zinc; for Initial weight: baseline
Text: Thirty-six Angus steers with an average body weight of 268 kg were stratified by weight and randomly assigned to feed regimens. […] Zinc was supplemented in all treatments to provide 25 ppm of supplemental zinc.
Steers were housed in pens of 12 steers and individually fed using electronic gates. Each pen contained an equal number of steers from each dietary regimen. Steers were fed a basal corn silage-based growing diet supplemented with protein, minerals and vitamins. Diets were offered ad libitum.
Body weights were obtained on two consecutive days at the initiation and termination of the 112-day study. Interim weights were taken at 28-day intervals. Blood and rumen fluid samples were obtained on day 42 of the study for determination of plasma and rumen fluid soluble zinc concentrations. Data were statistically analyzed by least square analysis of variance.

[4] = Comparative zinc bioavailability trial in day-old broilers (growth, feed conversion, bone ash, tibia ash zinc, plasma zinc); details: for Relative Biological Availability: Feed conversion (corr.): 3-21 days; for Relative Biological Availability: Body weight gain / Relative Biological Availability: Bone ash / Relative Biological Availability: Ending body weight: 21 days
Experimental: Each zinc treatment was replicated eight times and each pen contained ten male birds.
Basal feeds and zinc compound were mixed in a horizontal feed mixer providing the desired ingredient composition as shown in Table 2. The broilers were fed the rations for 21 days. Feed weights were taken during the trial. Body weights were measured at the beginning and at the end of the trial. On day 21, zinc levels in the blood and tibia ash were determined. The assay procedures for total tibia zinc content or concentration to assess zinc utilization are similar to those used by Wedekind et al., J. Anim. Sci., 70:178-187 (1992). The data were analyzed according to the SAS statistical package.
Chick growth parameters and zinc levels in the blood and tibia ash were used as criteria to determine the biological availability of zinc. […] The biological availability of zinc sulfate was arbitrarily set at 100%.

[5] = chickens; cited from earlier work
[6] = in vivo; cited from earlier work
[7] = bovine, in vivo; cited from earlier work
[8] = 0 to 28 days, propionate vs. sulfate P < 0.05, vs. methionine P < 0.10
[9] = 55 to 112 days (so in the source)
[10] = 0 to 28 days, propionate vs. methionine P < 0.05, vs. sulfate P < 0.10 (as footnoted)
[11] = 29 to 56 days, propionate vs. methionine P < 0.05
[12] = 29 to 56 days, propionate vs. sulfate P < 0.05, vs. methionine P < 0.10
[13] = 57 to 84 days, propionate vs. sulfate P < 0.10
[14] = Total (0 to 112 days), propionate vs. sulfate P < 0.05, vs. methionine P < 0.10
[15] = zinc sulfate arbitrarily set at 100%
[16] = day 21, zinc sulfate arbitrarily set at 100%

CSCC[C@H](N)C(=O)O.O=S(=O)([O-])O.O=S(=O)([O-])O.[Zn+2] [Zinc methionine, Zinc methionine bisulfate]
Average daily gain ([1]; 0 to 28 days): 1.32 | Feed intake ([1]; 0 to 28 days): 6.35 kg/day | Gain/feed [1, 8]: 0.208 | Final weight [1]: 487.6 kg | Initial weight [1]: 304.7 kg | Average daily gain ([1]; 29 to 56 days): 1.45 | Feed intake ([1]; 29 to 56 days): 7.76 kg/day | Gain/feed ([1]; 29 to 56 days): 0.186 | Gain/feed [1, 9]: 0.115 | Average daily gain ([1]; 57 to 84 days): 1.57 | Feed intake ([1]; 57 to 84 days): 6.43 kg/day | Gain/feed ([1]; 57 to 84 days): 0.244 | Average daily gain ([1]; 85 to 112 days): 0.97 | Feed intake ([1]; 85 to 112 days): 8.51 kg/day | Average daily gain ([1]; 113 to 140 days): 1.22 | Feed intake ([1]; 113 to 140 days): 6.59 kg/day | Gain/feed ([1]; 113 to 140 days): 0.184 | Average daily gain ([1]; Total (0 to 140 days)): 1.31 | Feed intake ([1]; Total (0 to 140 days)): 7.13 kg/day | Gain/feed ([1]; Total (0 to 140 days)): 0.183 | biological availability vs inorganic salts (in words) [2]: more biologically available to the animal than are the same ions provided from inorganic salts | gains, second 28-day period (in words) ([3]; 29 to 56 days, methionine vs propionate (P<0.05)): gains were greater (P<0.05) in steers fed zinc methionine compared with those fed zinc propionate | Gains for the entire study (in words) ([3]; 112-day study): tended to be higher for steers fed zinc methionine | Average daily gain ([3]; 0 to 28 days): 1.33 kg | Feed intake ([3]; 0 to 28 days): 8.11 kg/day | Gain/feed [3, 10]: 0.164 | Final weight ([3]; 112-day study): 399.6 kg | Initial weight [3]: 267.7 kg | Feed intake ([3]; 29 to 56 days): 9.03 kg/day | Average daily gain [3, 11]: 1.18 kg | Gain/feed [3, 12]: 0.132 | Average daily gain ([3]; 57 to 84 days): 0.87 kg | Gain/feed ([3]; 57 to 84 days): 0.104 | Feed intake [3, 13]: 8.62 kg/day | Average daily gain ([3]; 85 to 112 days): 1.34 kg | Feed intake ([3]; 85 to 112 days): 8.56 kg/day | Gain/feed ([3]; 85 to 112 days): 0.158 | Average daily gain ([3]; Total (0 to 112 days)): 1.18 kg | Feed intake ([3]; Total (0 to 112 days)): 8.58 kg/day | Gain/feed [3, 14]: 0.139 | feed consumption (in words) ([3]; total study period, vs zinc sulfate (P<0.10)): consumed more (P<0.10) feed over the total study period than steers fed zinc sulfate | Relative Biological Availability: Feed conversion (corr.) [4, 15]: 90.38% | Relative Biological Availability: Body weight gain [4, 15]: 131.52% | Relative Biological Availability: Bone ash [4, 15]: 113.95% | Relative Biological Availability: Ending body weight [4, 15]: 132.46% | levels of zinc in the blood and tibia ash (in words) ([4]; day 21): comparable levels of zinc in the blood and tibia ash | Relative Biological Availability: Plasma Zinc [4, 16]: 124.00% | Relative Biological Availability: Tibia ash zinc [4, 16]: 123.99%

O=S(=O)([O-])[O-].[Zn+2] [Zinc sulfate]
Average daily gain ([1]; 0 to 28 days): 1.26 | Feed intake ([1]; 0 to 28 days): 6.28 kg/day | Gain/feed [1, 8]: 0.201 | Final weight [1]: 489.6 kg | Initial weight [1]: 303.0 kg | Average daily gain ([1]; 29 to 56 days): 1.46 | Feed intake ([1]; 29 to 56 days): 7.51 kg/day | Gain/feed ([1]; 29 to 56 days): 0.195 | Gain/feed [1, 9]: 0.142 | Average daily gain ([1]; 57 to 84 days): 1.52 | Feed intake ([1]; 57 to 84 days): 6.21 kg/day | Gain/feed ([1]; 57 to 84 days): 0.244 | Average daily gain ([1]; 85 to 112 days): 1.19 | Feed intake ([1]; 85 to 112 days): 8.33 kg/day | Average daily gain ([1]; 113 to 140 days): 1.24 | Feed intake ([1]; 113 to 140 days): 6.60 kg/day | Gain/feed ([1]; 113 to 140 days): 0.189 | Average daily gain ([1]; Total (0 to 140 days)): 1.33 | Feed intake ([1]; Total (0 to 140 days)): 6.99 kg/day | Gain/feed ([1]; Total (0 to 140 days)): 0.191 | Average daily gain ([3]; 0 to 28 days): 1.34 kg | Feed intake ([3]; 0 to 28 days): 7.67 kg/day | Gain/feed [3, 10]: 0.178 | Final weight ([3]; 112-day study): 391.8 kg | Initial weight [3]: 265.5 kg | Feed intake ([3]; 29 to 56 days): 8.13 kg/day | Average daily gain [3, 11]: 1.10 kg | Gain/feed [3, 12]: 0.137 | Average daily gain ([3]; 57 to 84 days): 0.72 kg | Gain/feed ([3]; 57 to 84 days): 0.095 | Feed intake [3, 13]: 7.62 kg/day | Average daily gain ([3]; 85 to 112 days): 1.36 kg | Feed intake ([3]; 85 to 112 days): 7.86 kg/day | Gain/feed ([3]; 85 to 112 days): 0.174 | Average daily gain ([3]; Total (0 to 112 days)): 1.13 kg | Feed intake ([3]; Total (0 to 112 days)): 7.82 kg/day | Gain/feed [3, 14]: 0.145 | Relative Biological Availability: Feed conversion (corr.) [4, 15]: 100.00% | Relative Biological Availability: Body weight gain [4, 15]: 100.00% | Relative Biological Availability: Bone ash [4, 15]: 100.00% | Relative Biological Availability: Ending body weight [4, 15]: 100.00% | Relative Biological Availability: Plasma Zinc ([4]; chicken, in vivo, 30240 min): 100.00% | Relative Biological Availability: Tibia ash zinc ([4]; chicken, in vivo, 30240 min): 100.00%

CC(=O)[O-].CC(=O)[O-].[Zn+2] [zinc acetate, Zinc acetate]
toxicity (in words) [5]: toxic to chickens

O=C([O-])CC(O)(CC(=O)[O-])C(=O)[O-].O=C([O-])CC(O)(CC(=O)[O-])C(=O)[O-].[Zn+2].[Zn+2].[Zn+2] [zinc citrate]
absorption of metal cations in the gastrointestinal tract (in words) [2]: variable results, enhancing absorption in one study and having no effect in others

NCCCC[C@H](N)C(=O)O.[Zn] [zinc-lysine]
biological availability vs inorganic salts (in words) [2]: more biologically available to the animal than are the same ions provided from inorganic salts

zinc picolinate
absorption of zinc (in words) [6]: enhance the absorption of zinc in humans and rats | absorption of metal cations in the gastrointestinal tract (in words) [2]: variable results, enhancing absorption in one study and having no effect in others | absorption of zinc (in words) [7]: not in cattle
